Test results reported in US6420387B1, “Farnesyl protein transferase inhibiting (imidazol-5-yl) methyl-2-quinolinone derivatives” (Janssen Pharmaceutica N.V., priority 1995, dated 2002).
Where a name gives a salt, the structure may show the parent alone.

Legend:
[1] = molecular target: T1, Human farnesyl protein transferase (Homo sapiens, UniProt P49354+P49356); assay: In vitro assay for inhibition of farnesyl protein transferase (scintillation proximity assay); assay type: biochemical; conditions: concentration producing 50% inhibition of enzyme activity; [3H]-farnesylpyrophosphate and biotinylated lamin B peptide substrates, 60 min at 37° C.
T1 construct: grown as monolayer cell cultures were used as a source of human enzyme; endogenous in cells; host or cells: KHOS (Kirsten virus transformed human osteosarcoma) cells, grown as solid tumors in nude mice or as monolayer cultures; 30-50% ammonium sulfate fraction, then Q Fast Flow Sepharose
Method: Human farnesyl protein transferase was prepared essentially as described (Y. Reiss et al., Methods: A Companion to Methods in Enzymology vol 1, 241-245, 1990). Kirsten virus transformed human osteosarcoma (KHOS) cells (American Type Culture Collection, Rockville, Md., USA) grown as solid tumors in nude mice or grown as monolayer cell cultures were used as a source of human enzyme. Briefly, cells or tumors were homogenized in buffer containing 50 mM Tris, 1 mM EDTA, 1 mM EGTA and 0.2 mM phenylmethylsulfonylfluoride (pH 7.5). The homogenates were centrifuged 28,000×g for 60 min and the supernatants collected. A 30-50% ammonium sulfate fraction was prepared, and the resulting precipitate was resuspended in a small (10 to 20 ml) volume of dialysis buffer containing 20 mM Tris 1 mM dithiothreitol and 20 μM ZnCl2. The ammonium sulfate fraction was dialyzed overnight against two changes of the same buffer. The dialyzed material was applied to a 10×1 cm Q Fast Flow Sepharose (Pharmacia LKB Biotechnology Inc., Piscataway, N.J., USA) which had been preequilibrated with 100 ml of dialysis buffer supplemented with 0.05 M NaCl. The column was washed with an additional 50 ml of dialysis buffer plus 0.05 M NaCl followed by a gradient from 0.05 M to 0.25 M NaCl prepared in dialysis buffer. The enzyme activity was eluted with a linear gradient of 0.25 to 1.0 M NaCl prepared in the dialysis buffer. Fractions containing 4 to 5 ml volumes of column eluate were collected and analyzed for farnesyl protein transferase activity. Fractions with enzyme activity were pooled and supplemented with 100 μM ZnCl2. Enzyme samples were stored frozen at −70° C.
The activity of farnesyl protein transferase was measured using the Farnesyl Transferase [^3H] Scintillation Proximity Assay (Amersham International plc., England) under the conditions specified by the manufacturer. To assay for inhibitors of the enzyme, 0.20 μCi of the [^3H]-famesylpyrophosphate substrate and the biotinylated lamin B peptide substrate (biotin-YRASNRSCAIM) were mixed with test compounds in a reaction buffer consisting of 50 mM HEPES, 30 mM MgCl2, 20 mM KCl, 5 mM dithiothreitol, 0.01% Triton X-100. Test compounds were delivered in a 10 μl volume of dimethylsulfoxide (DMSO) to achieve concentrations of 1 and 10 μg/ml in a final volume of 100 μl. The reaction mixture was warmed to 37° C. The enzyme reaction was started by adding 20 μl of diluted human farnesyl protein transferase. Sufficient enzyme preparation was added to produce between 4000 to 15000 cpm of reaction product during the 60 min of reaction incubation at 37° C. Reactions were terminated by the addition of STOP/scintillation proximity bead reagent (Amersham). The reaction product [^3H]-farnesyl-(Cys)-biotin lamin B peptide was captured on the streptavidin linked scintillation proximity bead. The amount of [^3H]-farnesyl-(Cys)-biotin lamin B peptide synthesized in the presence or absence of test compounds was quantified as cpm by counting on a Wallac Model 1480 Microbeta Liquid Scintillation Counter. The cpm of product was considered to be farnesyl protein transferase activity. The protein farnesyl transferase activity observed in the presence of test compound was normalized to farnesyl transferase activity in the presence of 10% DMSO and expressed as per cent inhibition. […] The effects of test compounds in these studies were calculated as IC50 (concentration of test compound producing 50% inhibition of enzyme activity) using the LGICV50 computer program written by the Science Information Division of R. W. Johnson Pharmaceutical Research Institute (Spring House, Pa., USA) on a VAX computer.

[2] = test system: NIH 3T3 cells transformed by the T24 activated human H-ras gene; assay: Ras-transformed cell phenotype reversion assay; assay type: cell-based, mouse; conditions: cell counts after 72 hours proliferation, corrected for initial input of 200,000 cells
From the text: Insertion of activated oncogenes such as the mutant ras gene into mouse NIH 3T3 cells converts the cells to a transformed phenotype. The cells become tumorigenic, display anchorage independent growth in semi-solid medium and lose contact inhibition. Loss of contact inhibition produces cell cultures which no longer form uniform monolayers. Rather, the cells pile up into multicellular nodules and grow to very high saturation densities in plastic tissue culture dishes. Agents such as protein farnesyl transferase inhibitors which revert the ras transformed phenotype restore the uniform monolayer growth pattern to cells in culture. This reversion is easily monitored by counting the number of cells in tissue culture plates. Transformed cells will achieve higher cell numbers than cells which have reverted to an untransformed phenotype. Compounds which revert the transformed phenotype should produce antitumor effects in tumors bearing ras gene mutations.
Compounds are screened in tissue culture in NIH 3T3 cells transformed by the T24 activated human H-ras gene. Cells are seeded at an initial density of 200,000 cells per well (9.6 cm^2 surface area) in six-well cluster tissue culture plates. Test compounds are immediately added to 3.0 ml cell growth medium in a 3.0 μl volume of DMSO, with a final concentration of DMSO in the cell growth medium of 0.1%. The test compounds are run at concentrations of 5, 10, 50, 100, and 500 nM along with a DMSO treated vehicle control. (In case a high activity is observed at 5 nM, the test compound is tested at even lower concentrations.) The cells are allowed to proliferate for 72 hours. Then the cells are detached in 1.0 ml trypsin-EDTA cell dissociation medium and counted on a Coulter particle counter.
Cell numbers expressed as cells per well are measured using a Coulter Particle Counter.
All cell counts were corrected for the initial cell input density by subtracting 200,000.
Control cell counts=[cell counts from cells incubated with DMSO vehicle −200,000].
Test compound cell counts=[cell counts from cells incubated with test compound −200,000]. [formula]
IC50 (i.e. the test compound concentration required to inhibit enzyme activity by 50%) is calculated if sufficient data are available, summarized in table 11.

Compound | IC50 [1] [nM] | IC50 ([2]; NIH3T3) [nM] | IC50 [2] [nM]
Cn1cncc1C(CCl)(c1ccc(Cl)cc1)c1ccc2c(c1)c(-c1cccc(Cl)c1)cc(=O)n2C (racemic) [Compound 69, (±)-6-[2-chloro-1-(4-chlorophenyl)-1-(1-methyl-1H-imidazol-5-yl)ethyl]-4-(3-chlorophenyl)-1-methyl-2(1H)-quinolinone ethanedioate (1:1)] | 3.4 | 14 | –
COCC(=O)NC(c1ccc(Cl)cc1)(c1ccc2c(c1)c(-c1cccc(Cl)c1)cc(=O)n2C)c1cncn1C (racemic) [Compound 89, (±)-N-[(4-chlorophenyl)[4-(3-chlorophenyl)-1,2-dihydro-1-methyl-2-oxo-6-quinolinyl](1-methyl-1H-imidazol-5-yl)methyl]-2-methoxyacetamide monohydrochloride] | – | 24 | –
CCCOc1cccc(-c2cc(=O)n(C)c3ccc(C(c4ccc(Cl)cc4)c4cncn4C)cc23)c1 (centres unmarked) [Compound 52] | 5.7 | – | –
Cn1c(=O)cc(-c2ccccc2)c2cc(C(c3ccc(Cl)cc3)c3c[nH]cn3)ccc21 (centres unmarked) [Compound 42] | 910 | – | –
Cn1c(=O)cc(-c2cccc(Cl)c2)c2cc(C(c3ccc(Cl)cc3)c3c[nH]cn3)ccc21 (centres unmarked) [Compound 45] | 1000 | – | –
CCOCCCOC(c1ccc(Cl)cc1)(c1ccc2c(c1)c(-c1cccc(Cl)c1)cc(=O)n2C)c1cncn1C (centres unmarked) [Compound 29] | 57 | 345 | –
CCc1cccc(-c2cc(=O)n(C)c3ccc(C(O)(c4ccc(Cl)cc4)c4cncn4C)cc23)c1 (centres unmarked) [Compound 97] | 2.9 | – | –
CCCc1cccc(-c2cc(=O)n(C)c3ccc(C(O)(c4ccc(Cl)cc4)c4cncn4C)cc23)c1 (centres unmarked) [Compound 99] | 1.7 | – | –
CCc1cccc(-c2cc(=O)n(C)c3ccc(C(N)(c4ccc(Cl)cc4)c4cncn4C)cc23)c1 (centres unmarked) [Compound 98] | 6.4 | 15 | –
COC(c1ccc(Cl)cc1)(c1ccc2c(c1)c(-c1cccc(Cl)c1)cc(=O)n2C)c1cncn1C (racemic) [Compound 4, (±)-4-(3-chlorophenyl)-6-[(4-chlorophenyl)methoxy(1-methyl-1H-imidazol-5-yl)methyl]-1-methyl-2(1H)-quinolinone ethanedioate(1:1).dihydrate] | 24 | – | –
COc1cccc(-c2cc(=O)n(C)c3ccc(C(O)(c4ccc(Cl)cc4)c4cncn4C)cc23)c1 (racemic) [Compound 36, (±)-6-[(4-chlorophenyl)hydroxy(1-methyl-1H-imidazol-5-yl)methyl]-4-(3-methoxyphenyl)-1-methyl-2(1H)-quinolinone] | 2.8 | – | –
CN(C)C(c1ccc(Cl)cc1)(c1ccc2c(c1)c(-c1cccc(Cl)c1)cc(=O)n2C)c1cncn1C (centres unmarked) [Compound 66] | 4 | 19 | –
Cn1cncc1C(CO)(c1ccc(Cl)cc1)c1ccc2c(c1)c(-c1cccc(Cl)c1)cc(=O)n2C (centres unmarked) [Compound 71] | 26 | 288 | –
Cn1cncc1C(c1ccc(Cl)cc1)c1ccc2[nH]c(=O)cc(-c3cccc(Cl)c3)c2c1 (centres unmarked) [Compound 7] | 1.6 | – | –
CNC(c1ccc(Cl)cc1)(c1ccc2c(c1)c(-c1cccc(Cl)c1)cc(=O)n2C)c1cncn1C (racemic) [Compound 61, (±)-4-(3-chlorophenyl)-6-[(4-chlorophenyl)(methylamino)(1-methyl-1H-imidazol-5-yl)methyl]-1-methyl-2(1H)-quinolinone monohydrate] | 1.1 | 310 | –
Cn1cncc1C(O)(c1ccc(Cl)cc1)c1ccc2c(c1)c(-c1ccccc1)cc(=O)n2C (centres unmarked) [Compound 1] | 6 | – | –
CCCOc1cccc(-c2cc(=O)n(C)c3ccc(C(O)(c4ccc(Cl)cc4)c4cncn4C)cc23)c1 (centres unmarked) [Compound 37] | 10.1 | – | –
Cn1cncc1C(O)(c1ccc(Cl)cc1)c1ccc2c(c1)c(-c1cccc(O)c1)cc(=O)n2C (centres unmarked) [Compound 64] | 11.6 | – | –
Cn1cncc1C(O)(c1ccc(Cl)cc1)c1ccc2c(c1)c(-c1cccc(Cl)c1)cc(=O)n2C (centres unmarked) [Compound 23, (A)-4-(3-chlorophenyl)-6-[(4-chlorophenyl)-hydroxy(1-methyl-1H-imidazol-5-yl)methyl]-1-methyl-2(1H)-quinolinone ethanedioate (1:1)] | – | – | 395
Cn1cncc1C(O)(c1ccc(Cl)cc1)c1ccc2c(c1)c(-c1cccc(Cl)c1)cc(=O)n2C (centres unmarked) [Compound 24, (B)-4-(3-chlorophenyl)-6-[(4-chlorophenyl)hydroxy(1-methyl-1H-imidazol-5-yl)methyl]-1-methyl-2(1H)-quinolinone ethanedioate(1:1)] | 2.7 | 16 | –
Cn1cncc1C(c1ccc(Cl)cc1)c1ccc2c(c1)c(-c1cccc(Cl)c1)cc(=S)n2C (racemic) [Compound 128, (±)-4-(3-chlorophenyl)-6-[(4-chlorophenyl)(1-methyl-1H-imidazol-5-yl)methyl]-1-methyl-2(1H)-quinolinethione] | – | 177 | –
Cn1cncc1C(c1ccc(Cl)cc1)(c1ccc2c(c1)c(-c1cccc(Cl)c1)cc(=O)n2C)n1ccnc1 (centres unmarked) [Compound 60] | 0.62 | 70 | –
Cn1cncc1C(OCCCO)(c1ccc(Cl)cc1)c1ccc2c(c1)c(-c1cccc(Cl)c1)cc(=O)n2C (centres unmarked) [Compound 15] | 18.4 | – | –
CCOC(=O)CC(c1ccc(Cl)cc1)(c1ccc2c(c1)c(-c1cccc(Cl)c1)cc(=O)n2C)c1cncn1C (centres unmarked) [Compound 58] | 2.8 | 96 | –
Cn1cncc1C(c1ccc(Cl)cc1)c1ccc2c(c1)c(-c1cccc(Cl)c1)cc(=O)n2C (racemic) [Compound 5, (±)-4-(3-chlorophenyl)-6-[(4-chlorophenyl)(1-methyl-1H-imidazol-5-yl)methyl]-1-methyl-2(1H)-quinolinone ethanedioate(1:1).mono-hydrate] | 25 | 32 | –
COCCNC(c1ccc(Cl)cc1)(c1ccc2c(c1)c(-c1cccc(Cl)c1)cc(=O)n2C)c1cncn1C (centres unmarked) [Compound 67] | 5.9 | 51 | –
Cn1cncc1C(N)(c1ccc(Cl)cc1)c1ccc2c(c1)c(-c1cccc(Cl)c1)c(Cl)c(=O)n2C (racemic) [Compound 143, (±)-6-[amino(4-chlorophenyl)(1-methyl-1H-imidazol-5-yl)methyl]-3-chloro-4-(3-chlorophenyl)-1-methyl-2(1H)-quinolinone] | – | 82 | –
